# Reference: patent US20050234073A1, “Methods of inhibiting inflammation” (priority 2003, published 2005)
# Assays:
# HepG2 cells = conditions: cited from earlier work
# BMDCs [1] = test: Flow cytometry of surface markers on BMDCs; format: cell-based, mouse
# Protocol: FIG. 17E is a flow cytometric analysis showing BMDCs cultured for 4 days with BMS212122 were stained with FITC-conjugated mAb 1B1. Dashed line represents the isotype control.
# FIG. 18 is flow cytometric analysis of in vitro differentiated bone marrow cells from wild type mice incubated with BMS212122 (MTPi) or vehicle Surface staining was performed using antibodies to MHC II (FITC-conjugated) and CD11c (PE-conjugated).
# Bone marrow was extracted from the femurs of C57BL6 or MTPmx1cre mice, washed once in PBS and resuspended in R10 supplemented with culture supernatant from murine GM-CSF transfected cells for a final concentration of 200 U/mL GM-CSF. BMDCs were then cultured in bacteriological plates for 12-14 days as described. Differentiated cells were harvested by gentle pipetting, washed in PBS, and analyzed by flow cytometry for surface expression of CD11c and I-A^b. Human monocytes were harvested from the peripheral blood of healthy volunteers by positive selection on CD14 magnetic beads (Miltenyi Biotec) and cultured in R10 medium at 10^6 cells per mL supplemented with 200 U/mL recombinant hIL-4 and 300 U/mL recombinant hGM-CSF (PeproTech, Rocky Hill, N.J.). After 5 days cells were dislodged by gentle pipetting, analyzed by flow cytometry and assayed for antigen presentation.
# Mouse cells were stained using the following antibodies: FITC-conjugated α-CD1d (1B1, PharMingen); PE-conjugated α-CD11c (HL3, PharMingen); FITC-conjugated α-1-A^d (AMS-32.1, PharMingen); PE-conjugated α-CD69 (H1.2F3, PharMingen); PE-conjugated α-B220 (RA3-6B2, PharMingen). Human cells were stained using: PE-conjugated α-CD83 (550634, PharMingen); FITC-conjugated α-HLA-A,B,C (557348, PharMingen); α-HLA DR,DP,DQ (32381A, PharMingen); α-CD1d (42.1 or 51.1.3); α-mouse IgG+IgM (AMI1708, Biosource, Camarillo, Calif.). Staining was performed in the presence of Via-Probe (PharMingen) and analyzed with a FACSort flow cytometer (Becton Dickinson).
# The role of MTP in CD1d presentation by primary mouse APCs was examined. Splenocytes were isolated from wild type mice and assayed for their ability to present an exogenous antigen, α-galcer, to DN32 NKT cells and their ability to stimulate the autoreactive NKT cell line 24.8. When splenocytes were incubated with BMS212122 for 24 hours prior to addition of NKT cells, their ability to present exogenous and endogenous CD1d-restricted antigens was reduced (FIG. 17B). […] Dendritic cells were then isolated from wild type splenocytes by positive selection on CD11c magnetic beads. […] Dendritic cells from mouse bone marrow (BMDC) were cultured with BMS212122 or vehicle control after 6 days of differentiation in the presence of GM-CSF. On day 10, BMDCs were collected and cocultured with NKT cells. […]
# splenocytes = test: Splenocyte / CD11c+ dendritic cell CD1d-restricted presentation to DN32 and 24.8 NKT cells (IL-2 ELISA); format: cell-based, mouse
# Protocol: FIG. 17B is a series of bar charts showing IL-2 production of splenocytes isolated from wild type mice in the presence or absence of exogenous antigens. Splenocytes were incubated for 24 hours with BMS212122 and washed. Exogenous antigens ovalbumin or α-galcer was added as indicated. Splenocytes were then co cultured with: CD4^+ cells from an OT-II transgenic mouse (left); DN32 NKT cells (center); or autoreactive 24.8 NKT cells (right). IL-2 concentrations were measured by ELISA of 40 hour culture supernatants. *, p<0.05.
# FIG. 17C is a bar chart showing IL-2 production of splenocytes or bone marrow derived dendritic cells co cultured with 24.8 NKT cells and incubated for 24 hours with BMS212122. Anti-CD1d mAb 1B1 or an isotype control was added as indicated. IL-2 concentrations were measured by ELISA of 40 hour culture supernatants. (nd=not detected) *, p<0.02.
# (§1) APCs were incubated with 100 ng/mL α-galcer (kindly provided by Dr. H. Ploegh) for 3 hours, washed three times in PBS and aliquoted into a 96 well plate at 10^6 cells/mL. DN32 cells were added at 1:1 E:T ratio unless otherwise indicated. CD4^+ cells were isolated from spleens of OT-II transgenic mice using positive selection on CD4 magnetic beads (Miltenyi Biotec) and incubated with APCs and 100 μg/mL ovalbumin. […] Mouse IL-2 production was assessed by ELISA (OptEIA, BD PharMingen) of 24 or 40 hour culture supernatants. […]
# [2] = test system: splenocytes, CD11c-positive splenic DCs and BMDCs; test: MHC class II-restricted presentation of ovalbumin to OT-II CD4+ T cells (IL-2 ELISA); format: cell-based, mouse
# Protocol: FIG. 17F is a bar chart showing 11-2 production of CD11c^+ splenocytes incubated for 24 hours with BMS212122 or bone marrow derived dendritic cells incubated for 3 days with BMS212122 were washed and co cultured with 100 μg/mL ovalbumin and 100,000 CD4^+ cells from an OT-II transgenic mouse. IL-2 concentrations were measured by ELISA of 24 hour culture supernatants.
# APCs were incubated with 100 ng/mL α-galcer (kindly provided by Dr. H. Ploegh) for 3 hours, washed three times in PBS and aliquoted into a 96 well plate at 10^6 cells/mL. DN32 cells were added at 1:1 E:T ratio unless otherwise indicated. CD4^+ cells were isolated from spleens of OT-II transgenic mice using positive selection on CD4 magnetic beads (Miltenyi Biotec) and incubated with APCs and 100 μg/mL ovalbumin. The 24.8 NKT cell line was incubated with APCs in the absence of added antigen at E:T=2:1 unless otherwise indicated. Mouse IL-2 production was assessed by ELISA (OptEIA, BD PharMingen) of 24 or 40 hour culture supernatants. APCs were treated with BMS212122 (10 uM dissolved in DMSO; kindly provided by Bristol Myers Squibb, New Jersey) as indicated and washed prior to addition of T or NKT cells. […]
# BMDCs [3] = test: Bone marrow derived dendritic cell presentation to 24.8 and DN32 NKT cells (IL-2 ELISA); format: cell-based, mouse; conditions: BMDCs cultured with inhibitor from day 6 to day 10
# Protocol: FIG. 17D is a line graph showing IL-2 production in bone marrow derived dendritic cells incubated for 4 days with BMS212122 (◯) or vehicle (●) were treated with α-galcer for 3 hours, washed and co cultured with DN32. IL-2 concentrations were measured by ELISA of 24 hour culture supernatants. *, p<0.01.
# as §1
# Bone marrow was extracted from the femurs of C57BL6 or MTPmx1cre mice, washed once in PBS and resuspended in R10 supplemented with culture supernatant from murine GM-CSF transfected cells for a final concentration of 200 U/mL GM-CSF. […] Differentiated cells were harvested by gentle pipetting, washed in PBS, and analyzed by flow cytometry for surface expression of CD11c and I-A^b. […] After 5 days cells were dislodged by gentle pipetting, analyzed by flow cytometry and assayed for antigen presentation. […]
smiles,measurement,setting,value
"Cc1ccc2c(nc(C)n2CCCCC2(C(=O)NCC(F)(F)F)c3ccccc3-c3ccccc32)c1NC(=O)c1ccccc1-c1ccc(C(F)(F)F)cc1 [BMS212122, 9-[4-[2,5-Dimethyl-4-[[[4′-(trifluoromethyl)[1,1′-biphenyl]-2-yl]carbonyl]amino]-1H-benzimidazol-1-yl]butyl]-N-(2,2,2-trifluoroethyl)-9H-fluorene-9-carboxamide]",secretion of apoB from HepG2 cells,HepG2 cells,prevents secretion
same,CD11c surface staining,BMDCs [1]; BMDCs,unaffected
same,MHC class II surface staining,BMDCs [1]; BMDCs,unaffected
same,"CD1d expression on BMDCs, % of vehicle controls",BMDCs [1]; after 4 days of treatment,66%
same,"CD1d expression on BMDCs, % of level in vehicle treated controls",BMDCs [1]; one day after addition,86%
same,effect on presentation of an endogenous ligand to 24.8 NKT cells,splenocytes; CD11c-positive dendritic cell population from splenocytes,highly pronounced
same,ability to present exogenous and endogenous CD1d-restricted antigens,splenocytes; splenocytes incubated 24 hours with inhibitor prior to addition of NKT cells,reduced
same,presentation of ovalbumin to CD4+ MHC class II-restricted ovalbumin-specific T cells,"[2]; CD11c-positive splenic DCs and BMDCs, inhibitor-treated",efficient presentation
same,splenocyte presentation of ovalbumin to MHC class II-restricted T cell line OT-II,"[2]; splenocytes, 24 hours inhibitor",no effect
same,presentation of α-galcer to DN32 cells,BMDCs [3],significant effect
